Measured values taken from patent publication US11464859B2 (priority 2005, dated 2022).
“Also recorded” adds a separate entry of the source.

What was measured:
[1] = test system: acute promyelocytic leukaemia; conditions: cited from earlier work; for efficacy and side effects compared with intravenous arsenic trioxide: oral, pilot study, patients with acute promyelocytic leukaemia, preliminary results
[2] = test system: many different cancer cell lines; conditions: cited from earlier work
[3] = cited from earlier work
[4] = test system: human tumour xenografts (renal cell carcinoma RXF 944LX, mammary cancer MAXF 401)
[5] = test system: telomeres of human cancer cells; format: cell-based; conditions: sodium salt
telomerase = telomerase (Homo sapiens, UniProt O14746); format: biochemical; conditions: sodium salt
Chain of telomerase (O14746 whole entry): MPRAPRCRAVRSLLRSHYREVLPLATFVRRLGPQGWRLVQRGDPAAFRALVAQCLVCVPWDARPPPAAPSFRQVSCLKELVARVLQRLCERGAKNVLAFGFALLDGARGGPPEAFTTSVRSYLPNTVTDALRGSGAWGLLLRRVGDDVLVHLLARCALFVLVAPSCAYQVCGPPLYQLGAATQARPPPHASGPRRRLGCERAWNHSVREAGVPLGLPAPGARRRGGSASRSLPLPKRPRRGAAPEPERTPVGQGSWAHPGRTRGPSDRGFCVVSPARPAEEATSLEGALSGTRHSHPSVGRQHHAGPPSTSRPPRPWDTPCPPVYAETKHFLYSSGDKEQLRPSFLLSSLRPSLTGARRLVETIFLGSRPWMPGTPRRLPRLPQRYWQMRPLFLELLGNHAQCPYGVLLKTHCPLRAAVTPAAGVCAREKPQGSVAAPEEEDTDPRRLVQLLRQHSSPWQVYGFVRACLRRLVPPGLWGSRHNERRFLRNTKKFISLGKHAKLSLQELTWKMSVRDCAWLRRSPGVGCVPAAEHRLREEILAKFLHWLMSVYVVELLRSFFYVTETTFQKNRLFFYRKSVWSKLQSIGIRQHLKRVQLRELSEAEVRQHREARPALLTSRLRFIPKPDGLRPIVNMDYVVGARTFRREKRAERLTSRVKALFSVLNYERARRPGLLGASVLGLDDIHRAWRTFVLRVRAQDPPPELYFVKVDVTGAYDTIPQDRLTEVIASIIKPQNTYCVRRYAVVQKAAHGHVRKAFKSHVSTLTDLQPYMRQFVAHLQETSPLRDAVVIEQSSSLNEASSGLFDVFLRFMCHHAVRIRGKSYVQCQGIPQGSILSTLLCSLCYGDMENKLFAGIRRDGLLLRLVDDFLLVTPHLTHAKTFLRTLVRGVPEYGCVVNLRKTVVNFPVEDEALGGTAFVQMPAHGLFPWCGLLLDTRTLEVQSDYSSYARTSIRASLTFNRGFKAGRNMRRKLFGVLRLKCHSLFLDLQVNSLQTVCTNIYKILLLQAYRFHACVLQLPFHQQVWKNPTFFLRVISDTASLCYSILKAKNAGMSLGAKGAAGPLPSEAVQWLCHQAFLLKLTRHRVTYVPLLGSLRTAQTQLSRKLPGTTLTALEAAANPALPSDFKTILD

[6] = test system: prostate and/or urogenital cancer and bone metastasis; conditions: human, in vivo
[7] = test system: panel of 43 human tumour cell lines
[8] = in vivo
[9] = in vivo; remark: listed apart in the source
[10] = human, in vivo

## S1[As]2S[As]3S[As]2S[As]13 [tetra-arsenic tetrasulphide]
[1]
  efficacy and side effects compared with intravenous arsenic trioxide: The same was noted

## arsenic trioxide
[1]; daily intravenous administration alone, newly diagnosed and relapsed acute promyelocytic leukaemia
  clinical response: complete responses in a large majority of patients
[1]
  efficacy and side effects compared with intravenous arsenic trioxide: comparable
[2]
  effect on growth and apoptosis: inhibits growth and promotes apoptosis
[3]; patients treated with arsenic trioxide
  incidence of the listed adverse events (fatigue, fever, oedema, chest pain, nausea, ECG abnormalities etc.): ≥ 10 % of patients
[3]; patients
  effect on QT interval: prolong the QT and QT interval corrected for rate (QTc)

## arsenous acid sodium salt
[4]
  anti-tumour activity in a human tumour model in vivo: showed anti-tumour activity
[4]; in vivo
  activity in subcutaneously transplanted human tumour xenografts: borderline active in 2/7
  efficacy by schedule: better
[5]
  effect on telomeres: capable of shortening the telomeres of human cancer cells; also recorded: capable of shortening telomeres of human cancer cells, inducing cellular senescence and chromosomal abnormalities
telomerase
  inhibition of telomerase activity: doesn't inhibit telomerase activity; also recorded: does not directly inhibit the telomerase activity
[6]
  PSA levels and tumour size, overall: a reduction in their PSA levels and tumour size
  change in PSA levels, judgement: clinically significant change
  clinical response, overall: Most patients showed at least a partial response
  decrease in tumour activity: 99.15%
  further reduction in tumour activity: 67.56%
  further tumour activity reduction: 40.32%
  quality of life: strongly ameliorated
[7]
  IC50: 600 nM
  combination effect: additive effects
  potency among three arsenic compounds: most potent
  potency relative to arsenic trioxide: at least 15 fold
[8]
  absorption: rapidly absorbed
  persistence in plasma: remained in the plasma for prolonged periods
[8]; po
  bioavailability: approximately 100%
[9]
  main target organs of toxicity: bone marrow and lymphoid organs
[10]
  change in ECG activity, audiometry or neurological examinations: no change
  disturbance of patients' well-being feeling: did not cause any disturbance
  glucose levels: always appeared elevated
  hemoglobin concentration at end: 11.1
  hemoglobin concentration at start: 10.0
  liver transaminases sGOT, sGPT and sGGT: reversible increase
  sGGT elevation: worsened
  sGGT elevation and thrombocytosis: remained unchanged
  sGPT: reversible and slight increase
  triglycerides and cholesterol level: unchanged
[10]; po
  occurrence of the adverse events known for arsenic trioxide: none of these adverse events have been observed
